Reference: US9777020B2, “Furo-3-carboxamide derivatives and methods of use” (AbbVie Inc., priority 2014, dated 2017)
Marks after values point to notes of the source that are not given here.

Tests used:
[1] = system: MIA-induced osteoarthritis pain; experiment: Rat model of mono-iodoacetic acid (MIA) induced osteoarthritis pain, hind limb grip force; assay type: in vivo; settings: mean percent effect
Description: Members of the TrkA inhibitors described above were tested and found effective in reducing osteoarthritis pain. The compounds tested were assessed in an in vivo model well known to those skilled in the art, the rat model of mono-iodoacetic acid induced osteoarthritis pain. A general review of various models of pain can be found in Joshi and Honore, Expert Opinion in Drug Discovery (2004) 1, pp. 323-334, and in the book ‘Drug Discovery and Evaluation, 2nd edition (H. Gerhard Vogel, editor; Springer-Verlag, New York, 2002; pp. 702-706). Pain behavior was assessed by measurement of hind limb grip force (GF) in adult osteoarthritic rats. Male Sprague Dawley rats, generally weighing 125-150 g, were injected in the unilateral knee join with a single intra-articular injection of sodium monoiodoacetate (MIA). Rats were tested at 21-28 days following MIA injection. A behavioral measure of activity-induced pain was carried out. Measurements of the peak hind limb grip force were conducted by recording the maximum compressive force (CFmax), in grams of force, exerted on a hind limb strain gauge setup, in a commercially available grip force measurement system (Columbus Instruments, Columbus, Ohio). During testing, each rat was gently restrained by grasping it around its rib cage and then allowed to grasp the wire mesh frame attached to the strain gauge. The experimenter then moved the animal in a rostral-to-caudal direction until the grip was broken. Each rat was sequentially tested twice at an approximately 2-3 minute interval to obtain a raw mean grip force (CFmax). This raw mean grip force data was in turn converted to a maximum hindlimb cumulative compressive force (CFmax), as the grams of force/kg of body weight, for each animal. For evaluating the compound effects, the hind limb grip force testing in the MIA-treated rats was conducted generally 30-60 minutes after dosing with the test compound. A group of age-matched naïve (not injected with MIA) animals was added as a comparator to the drug-dosed groups. The vehicle control response for each group of MIA-treated animals was defined as the 0% response (0% effect), whereas the naïve control group was defined as the normal response and as 100% effect. The % effect=(Treatment CFmax−Vehicle CFmax)[…]]×100). Higher % effect numbers indicate increased relief from the pain in the model, with 100% indicating a return to the level of response seen in normal (non-osteoarthritic) animals. All experiments evaluating drug effects in this model were conducted in a randomized blinded fashion. Male Sprague Dawley rats (generally 250-300 g body weight at the time of testing) obtained from Charles River Laboratories (Wilmington, Mass.) were used for all experiments, unless indicated otherwise. The animals were housed in Association for Assessment and Accreditation of Laboratory Animal Care (AAALAC) approved facilities at AbbVie in a temperature-regulated environment under a controlled 12-hour light-dark cycle, with lights on at 6:00 a.m. Food and water were available ad libitum at all times except during testing. All testing was done following procedures outlined in protocols approved by AbbVie Institutional Animal Care and Use Committee.

TrkA = TrkA (Homo sapiens (Human), UniProt P04629); experiment: TrkA kinase HTRF enzyme inhibition assay; assay type: biochemical; settings: TrkA pre-incubated with 200 μM ATP
Chain of TrkA (P04629 33-796): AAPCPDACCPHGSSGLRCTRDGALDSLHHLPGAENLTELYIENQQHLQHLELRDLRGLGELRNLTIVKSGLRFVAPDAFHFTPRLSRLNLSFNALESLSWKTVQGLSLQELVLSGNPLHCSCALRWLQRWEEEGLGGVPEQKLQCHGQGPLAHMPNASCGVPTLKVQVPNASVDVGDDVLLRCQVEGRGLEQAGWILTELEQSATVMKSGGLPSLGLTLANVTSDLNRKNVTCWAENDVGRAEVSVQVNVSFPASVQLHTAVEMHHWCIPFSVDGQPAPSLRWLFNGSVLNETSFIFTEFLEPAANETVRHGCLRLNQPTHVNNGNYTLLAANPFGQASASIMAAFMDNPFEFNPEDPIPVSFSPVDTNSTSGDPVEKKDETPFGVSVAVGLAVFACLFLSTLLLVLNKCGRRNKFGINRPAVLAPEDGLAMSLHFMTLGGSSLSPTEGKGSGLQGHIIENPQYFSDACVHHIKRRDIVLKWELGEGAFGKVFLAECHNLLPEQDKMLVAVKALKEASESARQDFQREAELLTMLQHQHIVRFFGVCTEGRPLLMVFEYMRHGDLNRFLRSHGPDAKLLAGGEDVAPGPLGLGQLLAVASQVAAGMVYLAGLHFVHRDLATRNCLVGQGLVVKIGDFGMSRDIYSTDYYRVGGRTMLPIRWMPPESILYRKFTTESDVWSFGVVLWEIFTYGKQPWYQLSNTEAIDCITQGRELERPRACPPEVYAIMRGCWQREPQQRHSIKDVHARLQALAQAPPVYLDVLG
In short: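 TrkA (2-10 nM) pre-activated 20 min with 200 μM ATP in HEPES pH 7.4/Mg/Mn buffer, compound added for 10 min, then biotinylated LCK-analog peptide (125 nM) for 1 h at ambient temperature. HTRF phosphotyrosine detection (665/620 ratio); duplicate half-log dilutions, IC50 from initial-rate inhibition via equation 1.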

[2] = 30 mg/kg p.o., tested 30-60 minutes postdosing

CCOc1nc(N2CCN(C(C)=O)CC2)ccc1NC(=O)c1coc2c1C(=O)N(CCO)CC2 [Example 9, N-[6-(4-acetylpiperazin-1-yl)-2-ethoxypyridin-3-yl]-5-(2-hydroxyethyl)-4-oxo-4,5,6,7-tetrahydrofuro[3,2-c]pyridine-3-carboxamide]
% Effect (hind limb grip force, MIA model) [1, 2]: 69% **

COc1nc(N2CCN(C(=O)N3CCOCC3)CC2)ccc1NC(=O)c1coc2c1C(=O)NC(C)(C)C2 [Example 121, N-{2-methoxy-6-[4-(morpholin-4-ylcarbonyl)piperazin-1-yl]pyridin-3-yl}-6,6-dimethyl-4-oxo-4,5,6,7-tetrahydrofuro[3,2-c]pyridine-3-carboxamide]
% Effect (hind limb grip force, MIA model) [1, 2]: 74% ***
IC50 (TrkA): 18.1 nM

COc1cc(N2CCN(C(C)=O)CC2)ccc1NC(=O)c1coc2c1C(=O)NC(C)(C)C2 [Example 126, N-[4-(4-acetylpiperazin-1-yl)-2-methoxyphenyl]-6,6-dimethyl-4-oxo-4,5,6,7-tetrahydrofuro[3,2-c]pyridine-3-carboxamide]
% Effect (hind limb grip force, MIA model) ([1]; 100 mg/kg p.o., tested 3 hours post dose): 47% **
IC50 (TrkA): 25 nM

CCOc1nc(N2CCN(C(C)=O)CC2)ccc1NC(=O)c1coc2c1C(=O)NC(C)(C)C2 [Example 128, N-[6-(4-acetylpiperazin-1-yl)-2-ethoxypyridin-3-yl]-6,6-dimethyl-4-oxo-4,5,6,7-tetrahydrofuro[3,2-c]pyridine-3-carboxamide]
% Effect (hind limb grip force, MIA model) ([1]; 30 mg/kg p.o., tested 3 hours post dose): 55% ***
IC50 (TrkA): 5.4 nM

Cn1cc2cc(NC(=O)c3coc4c3C(=O)CC(C)(C)C4)ccc2n1 [Example 147, 6,6-dimethyl-N-(2-methyl-2H-indazol-5-yl)-4-oxo-4,5,6,7-tetrahydro-1-benzofuran-3-carboxamide]
% Effect (hind limb grip force, MIA model) ([1]; 300 mg/kg p.o., tested 3 hours post dose): 69% ***
IC50 (TrkA): 16.1 nM

COCCOc1nc(N2CCN(C(C)=O)CC2)ccc1NC(=O)c1coc2c1C(=O)NC(C)(C)C2 [Example 177, N-[6-(4-acetylpiperazin-1-yl)-2-(2-methoxyethoxyl)pyridin-3-yl]-6,6-dimethyl-4-oxo-4,5,6,7-tetrahydrofuro[3,2-c]pyridine-3-carboxamide]
% Effect (hind limb grip force, MIA model) [1, 2]: 68% ***
IC50 (TrkA): 12.2 nM
